{
  "source": "EPA's ToxValDB 9.5 (doi:10.2903/j.efsa.2005.15r)",
  "key": {"Aphidius rhopalosiphi": {"system": "Aphidius rhopalosiphi", "settings": "not reported; mortality"}, "Apis mellifera": {"system": "Apis mellifera", "settings": "acute, duration: 48 hours, mortality"}, "Typhlodromus pyri": {"system": "Typhlodromus pyri", "settings": "not reported; mortality"}, "Bird": {"system": "Bird", "settings": "acute; oral; unspecified; mortality"}, "Oryctolagus sp.": {"system": "Oryctolagus sp.", "settings": "reproduction developmental; mortality"}, "[1]": {"settings": "chronic/long-term, duration: 21 days"}},
  "data": [
    {"smiles": "COC(=O)c1ccccc1S(=O)(=O)NC(=O)N(C)c1nc(C)nc(OC)n1", "note": "[Tribenuron-methyl]", "values": [
      {"measurement": "LEL", "setting": "Aphidius rhopalosiphi", "value": 30, "unit": "g/ha"},
      {"measurement": "LC50", "setting": "Oncorhynchus mykiss; acute, duration: 96 hours, mortality", "value": 738, "unit": "µg/mL"},
      {"measurement": "NOEC", "setting": "Oncorhynchus mykiss; [1]", "value": 560, "unit": "mg/L"},
      {"measurement": "LD50", "setting": "Apis mellifera; dermal", "value": "> 98.4", "unit": "µg/piece"},
      {"measurement": "LD50", "setting": "Apis mellifera; oral, unspecified", "value": "> 9.1", "unit": "µg/piece"},
      {"measurement": "LEL", "setting": "Typhlodromus pyri", "value": 30, "unit": "g/ha"},
      {"measurement": "LC50", "setting": "Daphnia magna; acute, duration: 48 hours, mortality", "value": "> 894", "unit": "µg/mL"},
      {"measurement": "NOEC", "setting": "Daphnia magna; [1]", "value": 120, "unit": "mg/L"},
      {"measurement": "LD50", "setting": "Bird", "value": "> 2250", "unit": "mg/kg"},
      {"measurement": "LD50", "setting": "Rattus norvegicus; acute, oral, mortality", "value": "> 5000", "unit": "mg/kg"},
      {"measurement": "NOAEL", "setting": "Rattus norvegicus; chronic, duration: 2 years, body weight", "value": 1, "unit": "mg/kg-day"},
      {"measurement": "NOAEL", "setting": "Rattus norvegicus; reproduction developmental, reproduction", "value": 19, "unit": "mg/kg-day"},
      {"measurement": "NOAEL", "setting": "Rattus norvegicus; subchronic, duration: 90 days, oral, body weight", "value": 7, "unit": "mg/kg-day"},
      {"measurement": "NOAEL", "setting": "Oryctolagus sp.", "value": 20, "unit": "mg/kg-day"},
      {"measurement": "NOAEL", "setting": "Anas platyrhynchos; reproductive", "value": 21, "unit": "mg/kg-day"},
      {"measurement": "LC50", "setting": "Anas platyrhynchos; short-term, oral, feed, mortality", "value": "> 974", "unit": "mg/kg-day"}
    ]}
  ]
}
